Experimental findings from the supplement of paper PMC11208160 are described below.

This data set is described as follows: recombinant barcode read abundance after kanamycin selection (control-corrected) (log10(CPM+1)); higher = more efficient recombination; sequences stand for … in AGTGCAGAGAAAATCGGCCAGTTTTCTCTGCCTGCAGTCCGCATGCCGT…ATTTATGCAGCGGACTGCCTTTCTCCCAAAGTGATAAACCGGACAGTATCATGGACCGGTTTTCCCGGTAATCCGTATTTGCAAGGTTGGTTTCACT; site = the 11-nt target. The essentials: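 Targets were screened in pooled form in E. coli against IS621 bridge RNA target-binding loops. Recombination efficiency is based on barcode counts at recombinant junctions in counts per million, averaged and corrected for the control. Numbers are shown as log10(CPM+1), with duplicate plates on chloramphenicol/ampicillin LB agar (control) or chloramphenicol/ampicillin/kanamycin with 0.1 mM IPTG.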
Turning to “GGACACCGATGGGTTCTAACCTGTTGCCTTC [GGACACCCTAG_LTGcore_GA_RTGcore_GA] (site GGACACCCTAG) (LTG core: GA, RTG core: GA)”, the “recombinant barcode read abundance (log10)” value came out at 0.0178.

In the case of “GGACACCGTTGGGTTCTAACCTGTTGCCTAG [GGACACCCTAG_LTGcore_GT_RTGcore_CT] (site GGACACCCTAG) (LTG core: GT, RTG core: CT)”, the “recombinant barcode read abundance (log10)” value turned out to be 0.32.

Consider “GGCTCCCAGTGGGTTCTAACCTGTTGCGGCT [GGCTCCCCTCC_LTGcore_AG_RTGcore_AG] (site GGCTCCCCTCC) (LTG core: AG, RTG core: AG)”, for which the “recombinant barcode read abundance (log10)” value is 0.206.

In the case of “GGCTCCCCATGGGTTCTAACCTGTTGCGGTG [GGCTCCCCTCC_LTGcore_CA_RTGcore_CA] (site GGCTCCCCTCC) (LTG core: CA, RTG core: CA)”, the “recombinant barcode read abundance (log10)” value was determined as 0.1.

With “GGCTCCCCCTGGGTTCTAACCTGTTGCGGAG [GGCTCCCCTCC_LTGcore_CC_RTGcore_CT] (site GGCTCCCCTCC) (LTG core: CC, RTG core: CT)”, the “recombinant barcode read abundance (log10)” value was determined as 0.

Turning to “GGCTCCCCTTGGGTTCTAACCTGTTGCGGCA [GGCTCCCCTCC_LTGcore_CT_RTGcore_TG] (site GGCTCCCCTCC) (LTG core: CT, RTG core: TG)”, the “recombinant barcode read abundance (log10)” value came to 0.426.

Regarding “GGCTCCCCTTGGGTTCTAACCTGTTGCGGGT [GGCTCCCCTCC_LTGcore_CT_RTGcore_AC] (site GGCTCCCCTCC) (LTG core: CT, RTG core: AC)”, the “recombinant barcode read abundance (log10)” value was found to be 0.0344.

In the case of “GGCTCCCTCTGGGTTCTAACCTGTTGCGGGA [GGCTCCCCTCC_LTGcore_TC_RTGcore_TC] (site GGCTCCCCTCC) (LTG core: TC, RTG core: TC)”, the “recombinant barcode read abundance (log10)” value worked out at 0.238.

For “GGCTCCCTGTGGGTTCTAACCTGTTGCGGAG [GGCTCCCCTCC_LTGcore_TG_RTGcore_CT] (site GGCTCCCCTCC) (LTG core: TG, RTG core: CT)”, the “recombinant barcode read abundance (log10)” value came to 0.046.

Take “GGGAGCCACTGGGTTCTAACCTGTTGCTGAG [GGGAGCCCTCA_LTGcore_AC_RTGcore_CT] (site GGGAGCCCTCA) (LTG core: AC, RTG core: CT)”: the “recombinant barcode read abundance (log10)” value turned out to be 0.

For “GGGAGCCAGTGGGTTCTAACCTGTTGCTGAG [GGGAGCCCTCA_LTGcore_AG_RTGcore_CT] (site GGGAGCCCTCA) (LTG core: AG, RTG core: CT)”, the “recombinant barcode read abundance (log10)” value amounted to 0.493.

With “GGGAGCCAGTGGGTTCTAACCTGTTGCTGCT [GGGAGCCCTCA_LTGcore_AG_RTGcore_AG] (site GGGAGCCCTCA) (LTG core: AG, RTG core: AG)”, the “recombinant barcode read abundance (log10)” value worked out at 0.523.

In the case of “GGGAGCCCATGGGTTCTAACCTGTTGCTGTG [GGGAGCCCTCA_LTGcore_CA_RTGcore_CA] (site GGGAGCCCTCA) (LTG core: CA, RTG core: CA)”, the “recombinant barcode read abundance (log10)” value worked out at 0.536.

With “GGGAGCCCCTGGGTTCTAACCTGTTGCTGAG [GGGAGCCCTCA_LTGcore_CC_RTGcore_CT] (site GGGAGCCCTCA) (LTG core: CC, RTG core: CT)”, the “recombinant barcode read abundance (log10)” value amounted to 1.11.

For “GGGAGCCCGTGGGTTCTAACCTGTTGCTGCG [GGGAGCCCTCA_LTGcore_CG_RTGcore_CG] (site GGGAGCCCTCA) (LTG core: CG, RTG core: CG)”, the “recombinant barcode read abundance (log10)” value amounted to 0.113.

As to “GGGAGCCCTTGGGTTCTAACCTGTTGCTGTC [GGGAGCCCTCA_LTGcore_CT_RTGcore_GA] (site GGGAGCCCTCA) (LTG core: CT, RTG core: GA)”, the “recombinant barcode read abundance (log10)” value worked out at 0.0409.

With “GGGAGCCGATGGGTTCTAACCTGTTGCTGAG [GGGAGCCCTCA_LTGcore_GA_RTGcore_CT] (site GGGAGCCCTCA) (LTG core: GA, RTG core: CT)”, the “recombinant barcode read abundance (log10)” value worked out at 0.0418.

On to “GGGAGCCGCTGGGTTCTAACCTGTTGCTGGC [GGGAGCCCTCA_LTGcore_GC_RTGcore_GC] (site GGGAGCCCTCA) (LTG core: GC, RTG core: GC)”, for which the “recombinant barcode read abundance (log10)” value is 0.0416.

On to “GGGAGCCTATGGGTTCTAACCTGTTGCTGAG [GGGAGCCCTCA_LTGcore_TA_RTGcore_CT] (site GGGAGCCCTCA) (LTG core: TA, RTG core: CT)”, for which the “recombinant barcode read abundance (log10)” value was found to be 0.0839.

For “GGGAGCCTATGGGTTCTAACCTGTTGCTGTA [GGGAGCCCTCA_LTGcore_TA_RTGcore_TA] (site GGGAGCCCTCA) (LTG core: TA, RTG core: TA)”, the “recombinant barcode read abundance (log10)” value worked out at 0.157.

For the sequence “GGGCGGAACTGGGTTCTAACCTGTTGCGGAG [GGGCGGACTCC_LTGcore_AC_RTGcore_CT] (site GGGCGGACTCC) (LTG core: AC, RTG core: CT)”, the “recombinant barcode read abundance (log10)” value was found to be 0.449.

Take “GGGCGGAAGTGGGTTCTAACCTGTTGCGGAG [GGGCGGACTCC_LTGcore_AG_RTGcore_CT] (site GGGCGGACTCC) (LTG core: AG, RTG core: CT)”: the “recombinant barcode read abundance (log10)” value was 0.0524.

On to “GGGCGGAAGTGGGTTCTAACCTGTTGCGGCT [GGGCGGACTCC_LTGcore_AG_RTGcore_AG] (site GGGCGGACTCC) (LTG core: AG, RTG core: AG)”, for which the “recombinant barcode read abundance (log10)” value came out at 0.193.

For the sequence “GGGCGGACCTGGGTTCTAACCTGTTGCGGGG [GGGCGGACTCC_LTGcore_CC_RTGcore_CC] (site GGGCGGACTCC) (LTG core: CC, RTG core: CC)”, the “recombinant barcode read abundance (log10)” value was 0.132.

As to “GGGCGGACTTGGGTTCTAACCTGTTGCGGAA [GGGCGGACTCC_LTGcore_CT_RTGcore_TT] (site GGGCGGACTCC) (LTG core: CT, RTG core: TT)”, the “recombinant barcode read abundance (log10)” value worked out at 1.23.

On to “GGGCGGACTTGGGTTCTAACCTGTTGCGGAT [GGGCGGACTCC_LTGcore_CT_RTGcore_AT] (site GGGCGGACTCC) (LTG core: CT, RTG core: AT)”, for which the “recombinant barcode read abundance (log10)” value turned out to be 0.0401.

Take “GGGCGGACTTGGGTTCTAACCTGTTGCGGCA [GGGCGGACTCC_LTGcore_CT_RTGcore_TG] (site GGGCGGACTCC) (LTG core: CT, RTG core: TG)”: the “recombinant barcode read abundance (log10)” value worked out at 0.146.

As to “GGGCGGAGATGGGTTCTAACCTGTTGCGGAG [GGGCGGACTCC_LTGcore_GA_RTGcore_CT] (site GGGCGGACTCC) (LTG core: GA, RTG core: CT)”, the “recombinant barcode read abundance (log10)” value was determined as 0.539.

For “GGGCGGAGCTGGGTTCTAACCTGTTGCGGAG [GGGCGGACTCC_LTGcore_GC_RTGcore_CT] (site GGGCGGACTCC) (LTG core: GC, RTG core: CT)”, the “recombinant barcode read abundance (log10)” value came to 0.0821.

Consider “GGGCGGAGGTGGGTTCTAACCTGTTGCGGAG [GGGCGGACTCC_LTGcore_GG_RTGcore_CT] (site GGGCGGACTCC) (LTG core: GG, RTG core: CT)”, for which the “recombinant barcode read abundance (log10)” value was determined as 0.0907.

On to “GGGCGGAGGTGGGTTCTAACCTGTTGCGGCC [GGGCGGACTCC_LTGcore_GG_RTGcore_GG] (site GGGCGGACTCC) (LTG core: GG, RTG core: GG)”, for which the “recombinant barcode read abundance (log10)” value stood at 0.502.

Consider “GGGCGGATATGGGTTCTAACCTGTTGCGGAG [GGGCGGACTCC_LTGcore_TA_RTGcore_CT] (site GGGCGGACTCC) (LTG core: TA, RTG core: CT)”, for which the “recombinant barcode read abundance (log10)” value stood at 0.0954.
